Like-named read-outs stand apart in the source and are kept apart here.
What was measured:
Assay in all cases: TGFα-shedding assay-based GPCR screening with chimeric Gα subunit proteins
Format in all cases: cell-based
348 GPCRs [1] = target: T1, 348 GPCRs (Homo sapiens, UniProt P59542); conditions: 10µM, Favipiravir 100μM
T1 construct: expressed in transfected cells; host or cells: HEK293A
T1 sequence (P59542 1-299): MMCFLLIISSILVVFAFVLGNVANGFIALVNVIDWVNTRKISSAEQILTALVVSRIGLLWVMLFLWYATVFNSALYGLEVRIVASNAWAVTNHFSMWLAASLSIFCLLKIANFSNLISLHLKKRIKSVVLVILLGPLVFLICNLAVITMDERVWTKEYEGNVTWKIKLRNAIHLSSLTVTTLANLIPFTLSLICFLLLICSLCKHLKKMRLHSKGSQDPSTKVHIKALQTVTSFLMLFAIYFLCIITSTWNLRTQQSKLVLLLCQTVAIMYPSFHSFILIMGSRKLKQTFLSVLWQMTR

348 GPCRs [2] = target: 348 GPCRs (Homo sapiens, UniProt O95665); conditions: NTSR2 (neurotensin receptor type 2); 10µM, Favipiravir 100μM
348 GPCRs (Homo sapiens, UniProt O95665), sequence (O95665 whole entry): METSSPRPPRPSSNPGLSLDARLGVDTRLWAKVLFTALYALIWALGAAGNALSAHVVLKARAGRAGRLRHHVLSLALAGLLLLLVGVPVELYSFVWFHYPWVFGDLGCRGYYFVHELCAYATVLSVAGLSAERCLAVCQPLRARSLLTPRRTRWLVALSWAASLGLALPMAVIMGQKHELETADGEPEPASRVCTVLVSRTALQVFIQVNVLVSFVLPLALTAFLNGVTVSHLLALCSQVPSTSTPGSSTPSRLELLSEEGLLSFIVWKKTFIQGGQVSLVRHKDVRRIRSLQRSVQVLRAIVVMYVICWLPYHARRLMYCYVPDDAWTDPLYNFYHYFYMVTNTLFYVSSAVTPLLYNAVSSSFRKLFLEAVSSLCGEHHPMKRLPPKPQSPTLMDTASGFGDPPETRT

348 GPCRs [3] = target: T2, 348 GPCRs (Homo sapiens, UniProt P21730); conditions: 10µM, Favipiravir 100μM
T2 construct: expressed in transfected cells; host or cells: HEK293A
T2 sequence (P21730 1-350): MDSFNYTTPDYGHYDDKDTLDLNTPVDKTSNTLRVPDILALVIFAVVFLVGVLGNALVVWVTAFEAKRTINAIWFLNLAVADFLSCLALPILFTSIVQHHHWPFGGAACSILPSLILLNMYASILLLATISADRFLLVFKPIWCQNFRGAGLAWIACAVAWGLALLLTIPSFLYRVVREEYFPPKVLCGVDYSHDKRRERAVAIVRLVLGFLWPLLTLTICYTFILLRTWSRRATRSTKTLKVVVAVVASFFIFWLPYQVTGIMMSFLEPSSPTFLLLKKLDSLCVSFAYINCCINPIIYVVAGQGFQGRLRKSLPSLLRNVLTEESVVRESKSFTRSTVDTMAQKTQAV

348 GPCRs [4] = target: T3, 348 GPCRs (Homo sapiens, UniProt Q969V1); conditions: 10µM, Favipiravir 100μM
T3 construct: expressed in transfected cells; host or cells: HEK293A
T3 sequence (Q969V1 whole entry): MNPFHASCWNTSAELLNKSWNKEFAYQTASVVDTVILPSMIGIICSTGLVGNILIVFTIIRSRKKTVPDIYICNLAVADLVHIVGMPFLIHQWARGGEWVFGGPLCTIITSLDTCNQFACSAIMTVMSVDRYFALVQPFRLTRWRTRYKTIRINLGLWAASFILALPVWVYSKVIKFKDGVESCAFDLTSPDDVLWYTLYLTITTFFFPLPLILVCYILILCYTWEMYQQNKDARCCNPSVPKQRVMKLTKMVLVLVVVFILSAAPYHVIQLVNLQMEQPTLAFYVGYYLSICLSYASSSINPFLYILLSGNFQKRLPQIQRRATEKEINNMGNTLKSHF

348 GPCRs [5] = target: T4, 348 GPCRs (Homo sapiens, UniProt Q7Z602); conditions: 10µM, Favipiravir 100μM
T4 construct: expressed in transfected cells; host or cells: HEK293A
T4 sequence (Q7Z602 whole entry): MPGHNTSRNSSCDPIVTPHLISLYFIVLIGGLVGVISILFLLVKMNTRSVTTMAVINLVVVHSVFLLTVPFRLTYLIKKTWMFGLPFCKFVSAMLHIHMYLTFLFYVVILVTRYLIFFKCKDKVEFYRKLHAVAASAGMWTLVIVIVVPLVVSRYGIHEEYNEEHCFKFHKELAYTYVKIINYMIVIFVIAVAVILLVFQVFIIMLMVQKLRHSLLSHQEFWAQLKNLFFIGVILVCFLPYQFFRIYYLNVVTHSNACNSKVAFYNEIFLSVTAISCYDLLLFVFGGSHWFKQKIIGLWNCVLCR

348 GPCRs [6] = target: T5, 348 GPCRs (Homo sapiens, UniProt Q9ULV1); conditions: 10µM, Favipiravir 100μM
T5 construct: expressed in transfected cells; host or cells: HEK293A
T5 sequence (Q9ULV1 37-537): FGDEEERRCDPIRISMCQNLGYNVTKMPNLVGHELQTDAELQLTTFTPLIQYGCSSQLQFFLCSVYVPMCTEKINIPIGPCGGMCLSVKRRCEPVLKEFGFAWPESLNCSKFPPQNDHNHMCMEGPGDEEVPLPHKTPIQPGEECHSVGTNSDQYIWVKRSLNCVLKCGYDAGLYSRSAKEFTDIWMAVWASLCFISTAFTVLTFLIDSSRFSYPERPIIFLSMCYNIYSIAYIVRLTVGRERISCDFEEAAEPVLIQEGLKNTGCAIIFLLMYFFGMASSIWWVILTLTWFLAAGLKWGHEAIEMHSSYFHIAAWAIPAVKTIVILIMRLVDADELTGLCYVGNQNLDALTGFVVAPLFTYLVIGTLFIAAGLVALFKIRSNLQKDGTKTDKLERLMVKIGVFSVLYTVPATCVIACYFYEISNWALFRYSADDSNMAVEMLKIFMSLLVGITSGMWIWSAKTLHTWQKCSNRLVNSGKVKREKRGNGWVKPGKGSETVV

348 GPCRs [7] = target: T6, 348 GPCRs (Homo sapiens, UniProt P16473); conditions: 10µM, Favipiravir 100μM
T6 construct: expressed in transfected cells; host or cells: HEK293A
T6 sequence (P16473 21-764): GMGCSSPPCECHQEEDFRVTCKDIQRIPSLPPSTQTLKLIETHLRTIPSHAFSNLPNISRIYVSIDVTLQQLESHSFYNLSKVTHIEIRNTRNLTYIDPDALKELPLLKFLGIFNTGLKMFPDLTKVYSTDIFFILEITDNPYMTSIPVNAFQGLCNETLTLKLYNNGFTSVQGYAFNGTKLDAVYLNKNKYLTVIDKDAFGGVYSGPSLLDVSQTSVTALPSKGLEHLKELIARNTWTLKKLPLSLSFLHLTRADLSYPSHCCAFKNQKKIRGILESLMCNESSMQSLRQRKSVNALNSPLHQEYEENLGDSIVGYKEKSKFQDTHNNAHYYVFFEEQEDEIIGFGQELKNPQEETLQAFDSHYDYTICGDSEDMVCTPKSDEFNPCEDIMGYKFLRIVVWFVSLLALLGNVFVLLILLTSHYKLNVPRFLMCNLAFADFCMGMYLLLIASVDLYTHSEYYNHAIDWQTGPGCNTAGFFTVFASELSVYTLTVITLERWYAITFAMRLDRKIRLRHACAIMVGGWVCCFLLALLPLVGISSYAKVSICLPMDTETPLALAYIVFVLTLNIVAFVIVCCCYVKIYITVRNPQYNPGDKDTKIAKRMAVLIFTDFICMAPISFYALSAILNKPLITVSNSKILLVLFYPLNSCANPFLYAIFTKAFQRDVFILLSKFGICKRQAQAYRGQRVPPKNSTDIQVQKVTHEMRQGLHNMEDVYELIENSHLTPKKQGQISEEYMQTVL

348 GPCRs [8] = target: T7, 348 GPCRs (Homo sapiens, UniProt P30968); conditions: 10µM, Favipiravir 100μM
T7 construct: expressed in transfected cells; host or cells: HEK293A
T7 sequence (P30968 1-328): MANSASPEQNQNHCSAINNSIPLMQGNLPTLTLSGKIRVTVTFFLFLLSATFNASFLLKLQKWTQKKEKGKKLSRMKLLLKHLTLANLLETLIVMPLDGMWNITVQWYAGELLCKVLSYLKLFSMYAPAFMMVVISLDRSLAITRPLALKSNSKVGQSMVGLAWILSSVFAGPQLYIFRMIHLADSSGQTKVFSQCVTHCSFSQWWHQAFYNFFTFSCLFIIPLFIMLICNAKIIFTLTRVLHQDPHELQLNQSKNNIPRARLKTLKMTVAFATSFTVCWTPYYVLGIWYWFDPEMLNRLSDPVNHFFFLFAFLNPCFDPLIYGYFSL

348 GPCRs [9] = target: T8, 348 GPCRs (Homo sapiens, UniProt Q96RI8); conditions: 10µM, Favipiravir 100μM
T8 construct: expressed in transfected cells; host or cells: HEK293A
T8 sequence (Q96RI8 1-345): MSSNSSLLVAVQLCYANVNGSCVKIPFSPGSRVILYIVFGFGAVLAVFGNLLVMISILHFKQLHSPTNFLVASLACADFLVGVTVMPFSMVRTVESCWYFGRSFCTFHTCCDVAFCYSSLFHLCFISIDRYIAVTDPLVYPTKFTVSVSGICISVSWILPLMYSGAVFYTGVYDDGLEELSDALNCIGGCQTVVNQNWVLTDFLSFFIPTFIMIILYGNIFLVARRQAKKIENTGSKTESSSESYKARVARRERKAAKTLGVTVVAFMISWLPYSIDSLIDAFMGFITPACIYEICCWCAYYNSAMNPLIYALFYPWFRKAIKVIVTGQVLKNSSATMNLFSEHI

348 GPCRs [10] = target: T9, 348 GPCRs (Homo sapiens, UniProt Q9Y2T6)
T9 construct: expressed in transfected cells; host or cells: HEK293A
T9 sequence (Q9Y2T6 whole entry): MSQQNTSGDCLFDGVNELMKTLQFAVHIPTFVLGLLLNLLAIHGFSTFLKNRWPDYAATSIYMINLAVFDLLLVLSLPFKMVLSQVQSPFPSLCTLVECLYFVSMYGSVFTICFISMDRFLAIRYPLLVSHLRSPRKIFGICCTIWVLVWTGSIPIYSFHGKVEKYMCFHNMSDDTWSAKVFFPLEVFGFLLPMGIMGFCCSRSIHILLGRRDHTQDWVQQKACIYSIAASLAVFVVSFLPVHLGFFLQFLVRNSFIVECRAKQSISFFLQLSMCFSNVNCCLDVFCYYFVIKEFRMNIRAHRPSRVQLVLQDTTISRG

348 GPCRs [11] = target: T10, 348 GPCRs (Homo sapiens, UniProt Q7Z7M1); conditions: 10µM, Favipiravir 100μM
T10 construct: expressed in transfected cells; host or cells: HEK293A
T10 sequence (Q7Z7M1 whole entry): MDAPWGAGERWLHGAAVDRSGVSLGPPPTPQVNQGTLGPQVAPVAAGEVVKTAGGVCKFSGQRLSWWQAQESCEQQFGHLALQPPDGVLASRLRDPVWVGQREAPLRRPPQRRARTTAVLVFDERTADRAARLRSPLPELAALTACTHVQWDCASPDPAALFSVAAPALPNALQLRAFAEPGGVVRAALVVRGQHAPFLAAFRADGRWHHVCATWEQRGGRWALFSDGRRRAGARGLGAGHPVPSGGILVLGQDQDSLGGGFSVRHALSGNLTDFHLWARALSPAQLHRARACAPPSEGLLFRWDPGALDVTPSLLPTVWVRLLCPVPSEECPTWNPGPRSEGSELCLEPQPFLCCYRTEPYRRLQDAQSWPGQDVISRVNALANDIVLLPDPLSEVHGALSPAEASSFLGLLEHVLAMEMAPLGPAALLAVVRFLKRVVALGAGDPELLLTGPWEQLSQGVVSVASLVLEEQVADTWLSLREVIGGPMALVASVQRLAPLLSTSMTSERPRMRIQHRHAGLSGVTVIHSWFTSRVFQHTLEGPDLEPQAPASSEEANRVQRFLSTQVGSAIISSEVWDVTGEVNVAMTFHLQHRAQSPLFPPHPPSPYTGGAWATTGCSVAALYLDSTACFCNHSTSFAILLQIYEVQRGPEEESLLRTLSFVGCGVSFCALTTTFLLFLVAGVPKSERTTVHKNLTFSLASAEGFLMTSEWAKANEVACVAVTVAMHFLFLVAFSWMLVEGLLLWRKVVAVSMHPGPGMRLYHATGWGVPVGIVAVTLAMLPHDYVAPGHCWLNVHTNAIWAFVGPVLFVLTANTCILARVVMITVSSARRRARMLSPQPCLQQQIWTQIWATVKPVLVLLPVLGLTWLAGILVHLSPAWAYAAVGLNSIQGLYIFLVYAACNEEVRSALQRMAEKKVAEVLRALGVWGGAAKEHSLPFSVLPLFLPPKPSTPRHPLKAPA

[12] = TAS2R19 (taste receptor, type 2, member 19), read-out: % GPCR activation compared to TPA
[13] = C5AR1 (complement C5a receptor 1), read-out: % GPCR activation compared to TPA
[14] = MCHR2 (melanin concentrating hormone receptor 2), read-out: % GPCR activation compared to TPA
[15] = GPR141 (G Protein-Coupled Receptor 141), read-out: % GPCR activation compared to TPA
[16] = FZD4 (frizzled family receptor 4), read-out: % GPCR activation compared to TPA
[17] = TSHR (thyroid stimulating hormone receptor), read-out: % GPCR activation compared to TPA
[18] = GNRHR (gonadotropin releasing hormone receptor), read-out: % GPCR activation compared to TPA
[19] = TAAR6 (trace amine associated receptor 6), read-out: % GPCR activation compared to TPA
[20] = GPCR GPR55 (G Protein-Coupled Receptor 55), read-out: % GPCR activation compared to TPA
[21] = GPR144 (Adhesion G Protein-Coupled Receptor D2 (ADGRD2)), read-out: % GPCR activation compared to TPA
[22] = read-out: % GPCR activation compared to TPA, TAS2R19 (taste receptor, type 2, member 19)
[23] = read-out: % GPCR activation compared to TPA, C5AR1 (complement C5a receptor 1)
[24] = read-out: % GPCR activation compared to TPA, MCHR2 (melanin concentrating hormone receptor 2)
[25] = read-out: % GPCR activation compared to TPA, GPR141 (G Protein-Coupled Receptor 141)
[26] = read-out: % GPCR activation compared to TPA, FZD4 (frizzled family receptor 4)
[27] = read-out: % GPCR activation compared to TPA, TSHR (thyroid stimulating hormone receptor)
[28] = read-out: % GPCR activation compared to TPA, GNRHR (gonadotropin releasing hormone receptor)
[29] = read-out: % GPCR activation compared to TPA, TAAR6 (trace amine associated receptor 6)
[30] = read-out: % GPCR activation compared to TPA, GPCR GPR55 (G Protein-Coupled Receptor 55)
[31] = read-out: % GPCR activation compared to TPA, GPR144 (Adhesion G Protein-Coupled Receptor D2 (ADGRD2))

SMILES | activation at 100 µM (348 GPCRs [1]; [12]) | % GPCR activation compared to TPA (348 GPCRs [2]) | activation at 10 µM (348 GPCRs [3]; [13]) | activation at 10 µM (348 GPCRs [4]; [14]) | activation at 100 µM (348 GPCRs [5]; [15]) | activation at 100 µM (348 GPCRs [6]; [16]) | activation at 10 µM (348 GPCRs [7]; [17]) | activation at 10 µM (348 GPCRs [8]; [18]) | activation at 100 µM (348 GPCRs [9]; [19]) | activation at 10 µM (348 GPCRs [10]; [20]) | activation at 100 µM (348 GPCRs [11]; [21]) | activation at 100 µM (348 GPCRs [1]; [22]) | activation at 10 µM (348 GPCRs [3]; [23]) | activation at 10 µM (348 GPCRs [4]; [24]) | activation at 100 µM (348 GPCRs [5]; [25]) | activation at 100 µM (348 GPCRs [6]; [26]) | activation at 10 µM (348 GPCRs [7]; [27]) | activation at 10 µM (348 GPCRs [8]; [28]) | activation at 100 µM (348 GPCRs [9]; [29]) | activation at 10 µM (348 GPCRs [10]; [30]) | further results
N#C[C@@]1(c2ccc3c(N)ncnn23)O[C@H](CO)[C@@H](O)[C@H]1O [GS441524] | -0.28% | 1.005% | -2.17% | -0.458% | -0.309% | 4.3% | -1.39% | -3.48% | -1.31% | -0.0977% | -0.695% |  |  |  |  |  |  |  |  |  | 
CCC(CC)COC(=O)[C@H](C)N[P@](=O)(OC[C@H]1O[C@@](C#N)(c2ccc3c(N)ncnn23)[C@H](O)[C@@H]1O)Oc1ccccc1 [remdesivir] |  | -1.859% |  |  |  |  |  |  |  |  |  | 0.523% | -1.43% | -3.7% | -1.45% | 3.99% | -3.29% | -0.876% | -0.419% | -2.75% | activation at 100 µM (348 GPCRs [11]; [31]): 0.938%
CC(C)OC(=O)[C@H](C)N[P@](=O)(OC[C@H]1O[C@@H](n2ccc(=O)[nH]c2=O)[C@](C)(F)[C@@H]1O)Oc1ccccc1 [sofosbuvir] |  | 0.2553% |  |  |  |  |  |  |  |  |  | -0.561% | -2.89% | -1.19% | -0.925% | -0.222% | -0.338% | -0.976% | -3.52% | -0.223% | activation at 100 µM (348 GPCRs [11]; [31]): 0.00791%
NC(=O)c1nc(F)cnc1O [favipiravir, 6-fluoro-3-hydroxy-2-pyrazinecarboxamide] | -1.32% | -3.411% | -6.83% | -2.23% | -0.646% | 0.755% | -1.11% | -1.3% | -1.51% |  | -0.934% |  |  |  |  |  |  |  |  |  | activation at 100 µM (348 GPCRs [10]; GPCR GPR55 (G Protein-Coupled Receptor 55), 100μM, read-out: % GPCR activation compared to TPA): -0.0195%
CC(C)C(=O)OC[C@H]1O[C@@H](n2ccc(NO)nc2=O)[C@H](O)[C@@H]1O [molnupiravir] | -0.811% | 0.1275% | -2.78% | -3.92% | -1.57% | 1.08% | -0.502% | -1.32% | -2.31% | 0.0448% | -1.45% |  |  |  |  |  |  |  |  |  | 

Reference: paper PMC10175918 (Communications Biology, 2023)
